Measured values reported in patent US10597388B2, “Pyridazinone herbicides” (FMC CORPORATION, priority 2014, dated 2020).
Read-outs that look alike come from different tables or passages of the source.

Tests used:
Format in all cases: in vivo
[1] = test system: barnyardgrass (Echinochloa crus-galli); assay: Test A greenhouse herbicide test, pre- and postemergence; settings: Echinochloa crus-galli, 240 h; for pest or weed control at 1000 g/ha: 1000 g ai/ha; for pest or weed control at 1000 g/ha / pest or weed control at 500 g/ha: 0 to 100 scale; for pest or weed control at 125 g/ha: 125 g ai/ha; for pest or weed control at 500 g/ha: 500 g ai/ha
Summary of the method: (§1)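 Visual injury ratings, 0 (no effect) to 100 (complete control), versus untreated plants after roughly 10 d in a greenhouse. Compounds, formulated in a surfactant-containing non-phytotoxic solvent, were sprayed on loam–sand soil after sowing (pre) or on one- to two-leaf plants 2–10 cm tall (post).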

[2] = test system: corn (Zea mays); assay: as above; settings: Zea mays, 240 h
Summary of the method: as §1

[3] = test system: pigweed (Amaranthus retroflexus); assay: as above; settings: Amaranthus retroflexus, 240 h; for pest or weed control at 1000 g/ha: 1000 g ai/ha; for pest or weed control at 1000 g/ha / pest or weed control at 500 g/ha: 0 to 100 scale; for pest or weed control at 125 g/ha: 125 g ai/ha; for pest or weed control at 500 g/ha: 500 g ai/ha
Summary of the method: as §1

[4] = test system: wheat (Triticum aestivum); assay: as above; settings: Triticum aestivum, 240 h; for plant injury at 1000 g/ha: 1000 g ai/ha; for plant injury at 1000 g/ha / plant injury at 500 g/ha: 0 to 100 scale; for plant injury at 125 g/ha: 125 g ai/ha; for plant injury at 500 g/ha: 500 g ai/ha
Summary of the method: as §1

[5] = test system: crabgrass, large (large crabgrass, Digitaria sanguinalis); assay: Test C greenhouse herbicide test, pre- and postemergence
Summary of the method: (§2)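 Percent-control ratings (0 none, 100 complete) came from visual comparison with controls held alongside in the greenhouse for 13–15 d. Treatments covered soil application at sowing and foliar application to young plants 2–18 cm tall.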

[6] = test system: oilseed rape (Brassica napus); assay: as above
Summary of the method: as §2

[7] = test system: kochia (Kochia scoparia); assay: Test C greenhouse herbicide test, postemergence
Description: (§3) At the same time, plants selected from these crop and weed species and also chickweed (common chickweed, Stellaria media), kochia (Kochia scoparia), and oat, wild (wild oat, Avena fatua), were planted in pots containing Redi-Earth® planting medium (Scotts Company, 14111 Scottslawn Road, Marysville, Ohio 43041) comprising spaghnum peat moss, vermiculite, wetting agent and starter nutrients and treated with postemergence applications of test chemicals formulated in the same manner. Plants ranged in height from 2 to 18 cm (1- to 4-leaf stage) for postemergence treatments. Treated plants and controls were maintained in a greenhouse for 13 to 15 d, after which time all species were compared to controls and visually evaluated. Plant response ratings, summarized in Table C, are based on a scale of 0 to 100 where 0 is no effect and 100 is complete control. A dash (-) response means no test result.

[8] = test system: oat, wild (wild oat, Avena fatua); assay: Test C greenhouse herbicide test, postemergence
Description: as §3

[9] = post-emergence, Postemergence, 0 is no effect, 100 is complete control, read-out: Barnyardgrass plant response rating
[10] = pre-emergence, Preemergence, 0 no effect, 100 complete control, read-out: Plant response rating, Barnyardgrass
[11] = post-emergence, Postemergence, 0 is no effect, 100 is complete control, read-out: Pigweed plant response rating
[12] = pre-emergence, Preemergence, 0 no effect, 100 complete control, read-out: Plant response rating, Pigweed
[13] = post-emergence, Postemergence, 0 is no effect, 100 is complete control, read-out: Wheat plant response rating
[14] = pre-emergence, Preemergence, 0 no effect, 100 complete control, read-out: Plant response rating, Wheat
[15] = Postemergence, 31 g ai/ha, 0 to 100 scale (0 no effect, 100 complete control)
[16] = Postemergence, 125 g ai/ha, scale 0 to 100, 0 is no effect, 100 is complete control
[17] = Postemergence, 250 g ai/ha, scale 0 to 100, 0 no effect, 100 complete control, 13 to 15 d
[18] = Preemergence, 31 g ai/ha, scale 0 to 100, 0 is no effect, 100 is complete control
[19] = Preemergence, 62 g ai/ha, scale 0 to 100, 0 is no effect, 100 is complete control
[20] = Preemergence, 250 g ai/ha, scale 0 to 100 (0 no effect, 100 complete control)
[21] = postemergence, 62 g ai/ha, scale 0 to 100, 0 no effect, 100 complete control

`Cc1ccc2sc(C)c(-c3c(O)c(C)nn(C)c3=O)c2c1` [Compound 1, 4-(2,5-dimethylbenzo[b]thien-3-yl)-5-hydroxy-2,6-dimethyl-3(2H)-pyridazinone] showed a pest or weed control at 1000 g/ha [1, 9] of 90%, a pest or weed control at 1000 g/ha [1, 10] of 90% and a plant injury at 1000 g/ha ([2]; post-emergence, Postemergence, 1000 g ai/ha, 0 to 100 scale, 0 is no effect, 100 is complete control, read-out: Corn plant response rating) of 40%. For the same molecule, the Corn plant response rating (crop injury, 0 = no effect, 100 = complete kill) at 1000 g/ha ([2]; pre-emergence, Preemergence, 1000 g ai/ha, 0 to 100 scale, 0 no effect, 100 complete control) was 0%, the pest or weed control at 1000 g/ha [3, 11] was 100% and the pest or weed control at 1000 g/ha [3, 12] was 100%. For the same molecule, the plant injury at 1000 g/ha [4, 13] was 0%, the plant injury at 1000 g/ha [4, 14] was 0% and the “Crabgrass, Large plant response rating” value [5, 15] was 20. The “Plant response rating, Crabgrass, Large” value [5, 16] was 25, the “Plant response rating, Crabgrass, Large” value [5, 17] was 35 and the “Plant response rating, Crabgrass, Large” value [5, 18] was 35. The “Plant response rating, Crabgrass, Large” value [5, 19] was 40, the “Plant response rating, Crabgrass, Large” value ([5]; Preemergence, 125 g ai/ha, scale 0 to 100, 0 is no effect, 100 is complete control) was 80 and the “Crabgrass, Large plant response rating” value [5, 20] was 100. The “Crabgrass, Large plant response rating” value [5, 21] was 10, the “Oilseed Rape plant response rating” value [6, 15] was 0 and the “Plant response rating, Oilseed Rape” value [6, 16] was 5. The “Plant response rating, Oilseed Rape” value [6, 17] was 40, the “Plant response rating, Oilseed Rape” value [6, 18] was 0 and the “Plant response rating, Oilseed Rape” value [6, 19] was 5. For the same molecule, the “Oilseed Rape plant response rating” value [6, 20] was 20, the “Oilseed Rape plant response rating” value [6, 21] was 0 and the “Kochia plant response rating” value [7, 15] was 95. For the same molecule, the “Plant response rating, Kochia” value [7, 16] was 95, the “Plant response rating, Kochia” value [7, 17] was 100 and the “Kochia plant response rating” value [7, 21] was 95. For the same molecule, the “Oat, Wild plant response rating” value [8, 15] was 50, the “Plant response rating, Oat, Wild” value [8, 16] was 85 and the “Plant response rating, Oat, Wild” value [8, 17] was 100. For the same molecule, the “Oat, Wild plant response rating” value [8, 21] was 70.

Work on `Cc1nn(C)c(=O)c(-c2c(C)oc3c(C)cccc23)c1O` [Compound 9, 4-(2,7-dimethyl-3-benzofuranyl)-5-hydroxy-2,6-dimethyl-3(2H)-pyridazinone] yielded a pest or weed control at 125 g/ha ([1]; post-emergence, Postemergence, visual rating after approx. 10 d, 0 to 100 scale (0 no effect, 100 complete control), read-out: Plant response rating, Barnyardgrass) of 10%, a pest or weed control at 500 g/ha [1, 9] of 90% and a pest or weed control at 125 g/ha ([1]; pre-emergence, Preemergence, 0 to 100 scale where 0 is no effect and 100 is complete control, read-out: Barnyardgrass plant response rating) of 50%. The pest or weed control at 500 g/ha [1, 10] was 100%, the Corn plant response rating (crop injury, 0 = no effect, 100 = complete kill) at 125 g/ha ([2]; post-emergence, Postemergence, 125 g ai/ha, visual rating after approx. 10 d, 0 to 100 scale (0 no effect, 100 complete control)) was 0% and the plant injury at 500 g/ha ([2]; post-emergence, Postemergence, 500 g ai/ha, 0 to 100 scale, 0 is no effect, 100 is complete control, read-out: Corn plant response rating) was 0%. The plant injury at 125 g/ha ([2]; pre-emergence, Preemergence, 125 g ai/ha, 0 to 100 scale where 0 is no effect and 100 is complete control, read-out: Corn plant response rating) was 0%, the Corn plant response rating (crop injury, 0 = no effect, 100 = complete kill) at 500 g/ha ([2]; pre-emergence, Preemergence, 500 g ai/ha, 0 to 100 scale, 0 no effect, 100 complete control) was 0% and the pest or weed control at 125 g/ha ([3]; post-emergence, Postemergence, visual rating after approx. 10 d, 0 to 100 scale (0 no effect, 100 complete control), read-out: Plant response rating, Pigweed) was 0%. The pest or weed control at 500 g/ha [3, 11] was 0%, the pest or weed control at 125 g/ha ([3]; pre-emergence, Preemergence, 0 to 100 scale where 0 is no effect and 100 is complete control, read-out: Pigweed plant response rating) was 0% and the pest or weed control at 500 g/ha [3, 12] was 0%. For the same molecule, the plant injury at 125 g/ha ([4]; post-emergence, Postemergence, visual rating after approx. 10 d, 0 to 100 scale (0 no effect, 100 complete control), read-out: Plant response rating, Wheat) was 0%, the plant injury at 500 g/ha [4, 13] was 0% and the plant injury at 125 g/ha ([4]; pre-emergence, Preemergence, 0 to 100 scale where 0 is no effect and 100 is complete control, read-out: Wheat plant response rating) was 0%. The plant injury at 500 g/ha [4, 14] was 0%.
